Data published in patent US8658698B2, “Insecticidal compounds” (Syngenta Crop Protection, LLC, priority 2008, dated 2014).

Assays:
Type in all cases: in vivo
[1] = system: Spodoptera littoralis (Egyptian Cotton Leafworm); assay: Spodoptera littoralis cotton leaf disc spray test; conditions: same protocol, 200 ppm, 3 DAT
Protocol: (§1) This Example illustrates the pesticidal/insecticidal properties of compounds of formula (I). The tests were performed as follows:
Spodoptera littoralis (Egyptian Cotton Leafworm)
(§2) Cotton leaf discs were placed on agar in a 24-well microtiter plate and sprayed with test solutions at an application rate of 200 ppm. After drying, the leaf discs were infested with 5 L1 larvae. The samples were checked for mortality, feeding behavior, and growth regulation 3 days after treatment (DAT). The following compounds gave at least 80% control of Spodoptera littoralis: A2, A6, A8, A9, A10, A11, A13, A15, A19, A20, A22, A25, A27, A29, A31, A33, A35, A41, A50, A55, A60, A65, A73, A88, A92, and A94. Heliothis virescens (Tobacco Budworm): Eggs (0-24 h old) were placed in 24-well microtiter plate on artificial diet and treated with test solutions at an application rate of 200 ppm (concentration in well 18 ppm) by pipetting. After an incubation period of 4 days, samples were checked for egg mortality, larval mortality and growth regulation. The following compounds gave at least 80% control of Heliothis virescens: A2, A3, A4, A5, A6, A7, A9, A10, A11, A13, A15, A19, A20, A22, A25, A26, A27, A28, A29, A31, A32, A33, A35, A38, A40, A41, A43, A46, A55, A59, A60, A65, A69, A70, A71, A73, A74, A75, A77, A79, A80, A82, A86, A88, A89, A90, A92, A94, A96, A98, and A100. Plutella xylostella (Diamond Back Moth): A 24-well microtiter plate (MTP) with artificial diet was treated with test solutions at an application rate of 200 ppm (concentration in well 18 ppm) by pipetting. After drying, the MTP's were infested with L2 larvae (7-12 per well). After an incubation period of 6 days, samples were checked for larval mortality and growth regulation. The following compounds gave at least 80% control of Plutella xylostella: A3, A4, A5, A6, A7, A8, A10, A15, A16, A18, A19, A20, A22, A25, A26, A27, A28, A29, A31, A32, A33, A35, A38, A40, A55, A69, A71, A73, A74, A75, A76, A77, A78, A80, A82, A86, A87, A88, A89, A92, A94, A96, A97, A98, and A99. Diabrotica balteata (Corn Root Worm): A 24-well microtiter plate (MTP) with artificial diet was treated with test solutions at an application rate of 200 ppm (concentration in well 18 ppm) by pipetting. After drying, the MTP's were infested with larvae (L2) (6-10 per well). After an incubation period of 5 days, samples were checked for larval mortality, and growth regulation. The following compounds gave at least 80% control of Diabrotica balteata: A5, A6, A7, A14, A15, A18, A24, A35, A53, A55, A70, A71, A75, A79, A84, A85, A88, A92, A93, A95, A96, A97, A98, A99, A100, A101, A102, A103, and A104. Myzus persicae (Green Peach Aphid): Each well of a 24-well microtiter plate is filled with 0.6 ml 30% sucrose solution, containing 12.5 ppm of the test compounds. The wells are covered with streched parafilm and infested with a mixed population of Myzus persicae. After an incubation period of 6 days, samples are checked for mortality (feeding activity). The following compounds gave at least 80% control of Myzus persicae: A4, A6, A10, A11, A15, A19, A20, A24, A27, A29, A33, A34, A36, A37, A39, A40, A41, A42, A43, A44, A45, A46, A47, A48, A49, A55, A60, and A82. Tetranychus urticae (Two-Spotted Spider Mite): Bean leaf discs on agar in 24-well microtiter plates were sprayed with test solutions at an application rate of 200 ppm. After drying, the leaf discs are infested with mite populations of mixed ages. 8 days later, discs are checked for egg mortality, larval mortality, and adult mortality. The following compounds gave at least 80% control of Tetranychus urticae: A6, A11, A15, A19, A20, A22, A26, A35, A58, and A64.

[2] = system: Heliothis virescens (Tobacco Budworm); assay: Heliothis virescens egg test on artificial diet; conditions: same protocol, 200 ppm (18 ppm in well), 4 days
Protocol: as §1, §2

[3] = system: Plutella xylostella (Diamond Back Moth); assay: Plutella xylostella larvae test on artificial diet; conditions: same protocol, 200 ppm (18 ppm in well), 6 days
Protocol: as §1, §2

[4] = system: Diabrotica balteata (Corn Root Worm); assay: Diabrotica balteata larvae test on artificial diet; conditions: same protocol, 200 ppm (18 ppm in well), 5 days
Protocol: as §1, §2

[5] = system: Myzus persicae (Green Peach Aphid); assay: Myzus persicae sucrose solution feeding test; conditions: same protocol, 12.5 ppm, 6 days
Protocol: as §1, §2

[6] = system: Tetranychus urticae (Two-Spotted Spider Mite); assay: Tetranychus urticae bean leaf disc spray test; conditions: same protocol, 200 ppm, 8 days
Protocol: as §1, §2

Measured: effect on mortality, feeding behavior, or growth regulation

CCc1cc(C(F)(C(F)(F)F)C(F)(F)C(F)(F)F)cc(C)c1NC(=O)c1ccc(C(=O)NCc2ccc(Br)cc2F)c(C)c1 (stereo not drawn) [A83]
no or little effect: [1] | [2] | [3] | [4] | [5] | [6]

CCc1cc(C(F)(C(F)(F)F)C(F)(F)C(F)(F)F)cc(C)c1NC(=O)c1ccc(C(=O)NCc2ccc(C)c(C)c2)c(C)c1 (stereo not drawn) [A91]
no or little effect: [1] | [2] | [3] | [4] | [5] | [6]
